Test results reported in ChEMBL document CHEMBL2434896, “Carbonic anhydrase inhibitors. Synthesis of heterocyclic 4-substituted pyridine-3-sulfonamide derivatives and their inhibition of the human cytosolic isozymes I and II and transmembrane tumor-associated isozymes IX and XII” (Eur J Med Chem, 2013).
pKi: −log10 of the molar value. Calls of active or inactive are those of the source. The rule behind the calls is not given here.

Assays:
SF-539 = experiment: Growth inhibition of human SF539 cells at 10 uM after 48 hrs by sulforhodamine B assay; type: functional; conditions: SF-539, 48 h, read-out: GI
IGROV-1 = experiment: Growth inhibition of human IGROV1 cells at 10 uM after 48 hrs by sulforhodamine B assay; type: functional
TK-10 = experiment: Growth inhibition of human TK10 cells at 10 uM after 48 hrs by sulforhodamine B assay; type: functional
RXF 393 = experiment: Growth inhibition of human RXF393 cells at 10 uM after 48 hrs by sulforhodamine B assay; type: functional
CAKI-1 = experiment: Growth inhibition of human CAKI-1 cells at 10 uM after 48 hrs by sulforhodamine B assay; type: functional; conditions: CAKI-1, 48 h, read-out: GI
PC-3 = experiment: Growth inhibition of human PC3 cells at 10 uM after 48 hrs by sulforhodamine B assay; type: functional; conditions: PC-3, 48 h, read-out: GI
T47D = experiment: Growth inhibition of human T47D cells at 10 uM after 48 hrs by sulforhodamine B assay; type: functional
UACC-62 = experiment: Growth inhibition of human UACC62 cells at 10 uM after 48 hrs by sulforhodamine B assay; type: functional
SR = experiment: Growth inhibition of human SR cells at 10 uM after 48 hrs by sulforhodamine B assay; type: functional; conditions: read-out: GI
SF-268 = experiment: Growth inhibition of human SF268 cells at 10 uM after 48 hrs by sulforhodamine B assay; type: functional
NCI-H322M = experiment: Growth inhibition of human NCI-H322M cells at 10 uM after 48 hrs by sulforhodamine B assay; type: functional
SK-MEL-2 = experiment: Growth inhibition of human SK-MEL-2 cells at 10 uM after 48 hrs by sulforhodamine B assay; type: functional
SF-295 = experiment: Growth inhibition of human SF295 cells at 10 uM after 48 hrs by sulforhodamine B assay; type: functional
NCI/ADR-RES = experiment: Growth inhibition of human NCI-ADR-RES cells at 10 uM after 48 hrs by sulforhodamine B assay; type: functional
MDA-MB-435 = experiment: Growth inhibition of human MDA-MB-435 cells at 10 uM after 48 hrs by sulforhodamine B assay; type: functional
SK-OV-3 = experiment: Growth inhibition of human SKOV3 cells at 10 uM after 48 hrs by sulforhodamine B assay; type: functional
HL-60(TB) = experiment: Growth inhibition of human HL-60(TB) cells at 10 uM after 48 hrs by sulforhodamine B assay; type: functional
A549 = experiment: Growth inhibition of human A549/ATCC cells at 10 uM after 48 hrs by sulforhodamine B assay; type: functional; conditions: A549, 48 h, read-out: GI
UO-31 = experiment: Growth inhibition of human UO31 cells at 10 uM after 48 hrs by sulforhodamine B assay; type: functional; conditions: UO-31, 48 h, read-out: GI
HCT-116 = experiment: Growth inhibition of human HCT116 cells at 10 uM after 48 hrs by sulforhodamine B assay; type: functional; conditions: HCT-116, 48 h, read-out: GI
LOX IMVI = experiment: Growth inhibition of human LOXIMVI cells at 10 uM after 48 hrs by sulforhodamine B assay; type: functional
M14 = experiment: Growth inhibition of human M14 cells at 10 uM after 48 hrs by sulforhodamine B assay; type: functional
SK-MEL-5 = experiment: Growth inhibition of human SK-MEL-5 cells at 10 uM after 48 hrs by sulforhodamine B assay; type: functional
OVCAR-5 = experiment: Growth inhibition of human OVCAR5 cells at 10 uM after 48 hrs by sulforhodamine B assay; type: functional
RPMI-8226 = experiment: Growth inhibition of human RPMI8226 cells at 10 uM after 48 hrs by sulforhodamine B assay; type: functional; conditions: RPMI-8226, 48 h, read-out: GI
BT-549 = experiment: Growth inhibition of human BT549 cells at 10 uM after 48 hrs by sulforhodamine B assay; type: functional
ACHN = experiment: Growth inhibition of human ACHN cells at 10 uM after 48 hrs by sulforhodamine B assay; type: functional
DU-145 = experiment: Growth inhibition of human DU145 cells at 10 uM after 48 hrs by sulforhodamine B assay; type: functional
NCI-H460 = experiment: Growth inhibition of human NCI-H460 cells at 10 uM after 48 hrs by sulforhodamine B assay; type: functional
SK-MEL-28 = experiment: Growth inhibition of human SK-MEL-28 cells at 10 uM after 48 hrs by sulforhodamine B assay; type: functional, cell-based
HOP-62 = experiment: Growth inhibition of human HOP62 cells at 10 uM after 48 hrs by sulforhodamine B assay; type: functional
MOLT-4 = experiment: Growth inhibition of human MOLT4 cells at 10 uM after 48 hrs by sulforhodamine B assay; type: functional; conditions: MOLT-4, 48 h, read-out: GI
K562 = experiment: Growth inhibition of human K562 cells at 10 uM after 48 hrs by sulforhodamine B assay; type: functional
U-251 = experiment: Growth inhibition of human U251 cells at 10 uM after 48 hrs by sulforhodamine B assay; type: functional; conditions: U-251, 48 h, read-out: GI
HCT-15 = experiment: Growth inhibition of human HCT15 cells at 10 uM after 48 hrs by sulforhodamine B assay; type: functional; conditions: HCT-15, 48 h, read-out: GI
KM12 = experiment: Growth inhibition of human KM12 cells at 10 uM after 48 hrs by sulforhodamine B assay; type: functional
OVCAR-3 = experiment: Growth inhibition of human OVCAR3 cells at 10 uM after 48 hrs by sulforhodamine B assay; type: functional
MDA-MB-231 = experiment: Growth inhibition of human MDA-MB-231 cells at 10 uM after 48 hrs by sulforhodamine B assay; type: functional
Carbonic anhydrase 9 = Carbonic anhydrase 9 (Homo sapiens, UniProt Q16790); experiment: Inhibition of human carbonic anhydrase 9 after 15 mins by stopped flow CO2 hydration assay
MDA-MB-468 = experiment: Growth inhibition of human MDA-MB-468 cells at 10 uM after 48 hrs by sulforhodamine B assay; type: functional
OVCAR-4 = experiment: Growth inhibition of human OVCAR4 cells at 10 uM after 48 hrs by sulforhodamine B assay; type: functional; conditions: OVCAR-4, 48 h, read-out: GI
NCI-H522 = experiment: Growth inhibition of human NCI-H522 cells at 10 uM after 48 hrs by sulforhodamine B assay; type: functional; conditions: NCI-H522, 48 h, read-out: GI
Hs-578T = experiment: Growth inhibition of human Hs 578T cells at 10 uM after 48 hrs by sulforhodamine B assay; type: functional
CCRF-CEM = experiment: Growth inhibition of human CCRF-CEM cells at 10 uM after 48 hrs by sulforhodamine B assay; type: functional; conditions: read-out: GI
COLO 205 = experiment: Growth inhibition of human COLO205 cells at 10 uM after 48 hrs by sulforhodamine B assay; type: functional
HCC 2998 = experiment: Growth inhibition of human HCC2998 cells at 10 uM after 48 hrs by sulforhodamine B assay; type: functional

`CCc1cc(CC)n(-c2ccncc2S(N)(=O)=O)n1` was tested, and the inhibition of growth at 10 µM (SF-539) was 4%, the “growth inhibition (GI)” value (IGROV-1) was “inactive” and the “growth inhibition (GI)” value (TK-10) was “inactive”. For the same compound, the “growth inhibition (GI)” value (RXF 393) was “inactive”, the inhibition of growth at 10 µM (CAKI-1) was 1% and the inhibition of growth at 10 µM (PC-3) was 1%. The “growth inhibition (GI)” value (T47D) was “inactive”, the “growth inhibition (GI)” value (UACC-62) was “inactive” and the inhibition of growth at 10 µM (SR) was 5%. For the same compound, the “growth inhibition (GI)” value (SF-268) was “inactive”, the “growth inhibition (GI)” value (NCI-H322M) was “inactive” and the “growth inhibition (GI)” value (SK-MEL-2) was “inactive”. For the same compound, the “growth inhibition (GI)” value (SF-295) was “inactive”, the “growth inhibition (GI)” value (NCI/ADR-RES) was “inactive” and the “growth inhibition (GI)” value (MDA-MB-435) was “inactive”. The inhibition of growth at 10 µM (SK-OV-3; SK-OV-3, 48 h, read-out: GI) was 6%, the “growth inhibition (GI)” value (HL-60(TB)) was “inactive” and the inhibition of growth at 10 µM (A549) was 1%. The inhibition of growth at 10 µM (UO-31) was 8%, the inhibition of growth at 10 µM (HCT-116) was 1% and the “growth inhibition (GI)” value (LOX IMVI) was “inactive”. The “growth inhibition (GI)” value (M14) was “inactive”, the “growth inhibition (GI)” value (SK-MEL-5) was “inactive” and the “growth inhibition (GI)” value (OVCAR-5) was “inactive”. For the same compound, the inhibition of growth at 10 µM (RPMI-8226) was 9%, the inhibition of growth at 10 µM (BT-549; BT-549, 48 h, read-out: GI) was 2% and the “growth inhibition (GI)” value (ACHN) was “inactive”. For the same compound, the “growth inhibition (GI)” value (DU-145) was “inactive”, the “growth inhibition (GI)” value (NCI-H460) was “inactive” and the “growth inhibition (GI)” value (SK-MEL-28) was “inactive”. The “growth inhibition (GI)” value (HOP-62) was “inactive”, the inhibition of growth at 10 µM (MOLT-4) was 2% and the “growth inhibition (GI)” value (K562) was “inactive”. The inhibition of growth at 10 µM (U-251) was 1%, the inhibition of growth at 10 µM (HCT-15) was 4% and the “growth inhibition (GI)” value (KM12) was “inactive”. The inhibition of growth at 10 µM (OVCAR-3; OVCAR-3, 48 h, read-out: GI) was 1%, the “growth inhibition (GI)” value (MDA-MB-231) was “inactive” and the pKi (Carbonic anhydrase 9) was 7.50. The “growth inhibition (GI)” value (MDA-MB-468) was “inactive”, the inhibition of growth at 10 µM (OVCAR-4) was 4% and the inhibition of growth at 10 µM (NCI-H522) was 7%. The “growth inhibition (GI)” value (Hs-578T) was “inactive”, the inhibition of growth at 10 µM (CCRF-CEM) was 4% and the inhibition of growth at 10 µM (COLO 205; COLO 205, 48 h, read-out: GI) was 13%.

In the case of `NS(=O)(=O)c1cnccc1N1CCN(c2ccc(Cl)cc2)CC1`, the inhibition of growth at 10 µM (SF-539) was 8%, the inhibition of growth at 10 µM (IGROV-1; IGROV-1, 48 h, read-out: GI) was 10% and the “growth inhibition (GI)” value (TK-10) was “inactive”. The “growth inhibition (GI)” value (RXF 393) was “inactive”, the inhibition of growth at 10 µM (CAKI-1) was 15% and the inhibition of growth at 10 µM (PC-3) was 8%. The inhibition of growth at 10 µM (T47D; read-out: GI) was 32%, the inhibition of growth at 10 µM (UACC-62; UACC-62, 48 h, read-out: GI) was 16% and the inhibition of growth at 10 µM (SR) was 11%. The “growth inhibition (GI)” value (SF-268) was “inactive”, the inhibition of growth at 10 µM (NCI-H322M; read-out: GI) was 11% and the “growth inhibition (GI)” value (SK-MEL-2) was “inactive”. For the same compound, the inhibition of growth at 10 µM (SF-295; SF-295, 48 h, read-out: GI) was 14%, the “growth inhibition (GI)” value (NCI/ADR-RES) was “inactive” and the inhibition of growth at 10 µM (MDA-MB-435; MDA-MB-435, 48 h, read-out: GI) was 1%. The “growth inhibition (GI)” value (SK-OV-3) was “inactive”, the inhibition of growth at 10 µM (HL-60(TB); HL-60, 48 h, read-out: GI) was 1% and the “growth inhibition (GI)” value (HCC 2998) was “inactive”. The inhibition of growth at 10 µM (UO-31) was 20%, the inhibition of growth at 10 µM (HCT-116) was 5% and the inhibition of growth at 10 µM (LOX IMVI; read-out: GI) was 4%. For the same compound, the inhibition of growth at 10 µM (M14; M14, 48 h, read-out: GI) was 1%, the inhibition of growth at 10 µM (SK-MEL-5; SK-MEL-5, 48 h, read-out: GI) was 28% and the “growth inhibition (GI)” value (OVCAR-5) was “inactive”. For the same compound, the inhibition of growth at 10 µM (RPMI-8226) was 25%, the “growth inhibition (GI)” value (BT-549) was “inactive” and the inhibition of growth at 10 µM (ACHN; read-out: GI) was 6%. The “growth inhibition (GI)” value (DU-145) was “inactive”, the “growth inhibition (GI)” value (NCI-H460) was “inactive” and the “growth inhibition (GI)” value (SK-MEL-28) was “inactive”. The “growth inhibition (GI)” value (HOP-62) was “inactive”, the inhibition of growth at 10 µM (MOLT-4) was 25% and the inhibition of growth at 10 µM (K562; K562, 48 h, read-out: GI) was 28%. For the same compound, the inhibition of growth at 10 µM (HCT-15) was 5%, the “growth inhibition (GI)” value (KM12) was “inactive” and the “growth inhibition (GI)” value (OVCAR-3) was “inactive”. It also gave an inhibition of growth at 10 µM (MDA-MB-231; MDA-MB-231, 48 h, read-out: GI) of 7%, a pKi (Carbonic anhydrase 9) of 6.87 and an inhibition of growth at 10 µM (MDA-MB-468; MDA-MB-468, 48 h, read-out: GI) of 31%. The inhibition of growth at 10 µM (OVCAR-4) was 28%, the inhibition of growth at 10 µM (NCI-H522) was 8% and the “growth inhibition (GI)” value (Hs-578T) was “inactive”. For the same compound, the inhibition of growth at 10 µM (CCRF-CEM) was 17% and the “growth inhibition (GI)” value (COLO 205) was “inactive”.
